Structures are written as SMILES.

The values below come from ChEMBL document CHEMBL1144964, “Inhibition of mandelate racemase by alpha-fluorobenzylphosphonates” (Bioorg Med Chem Lett, 2003).

Data set [1] is described as follows: pKa2 (Dissociation constant) value (phosphonate group) was determined. Type of data set: physicochemical. Particulars: read-out: pKa2.
A further data set has as its target T1, Mandelate racemase (Pseudomonas putida, UniProt P11444).
T1 sequence (P11444 whole entry): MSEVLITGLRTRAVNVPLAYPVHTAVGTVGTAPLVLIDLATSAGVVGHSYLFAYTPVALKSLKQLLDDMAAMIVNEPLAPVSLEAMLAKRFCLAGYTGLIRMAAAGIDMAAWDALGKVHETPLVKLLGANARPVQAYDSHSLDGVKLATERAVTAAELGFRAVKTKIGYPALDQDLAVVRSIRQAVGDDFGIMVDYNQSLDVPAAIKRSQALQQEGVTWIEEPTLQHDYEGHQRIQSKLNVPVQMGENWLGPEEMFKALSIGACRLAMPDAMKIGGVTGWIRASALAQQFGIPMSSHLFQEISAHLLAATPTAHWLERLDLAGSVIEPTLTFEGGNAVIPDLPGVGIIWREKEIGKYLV
Briefly: Inhibition constant against Mandelate racemase from Pseudomonas putida at pH 7.5.

Data set [2] is described as follows: Inhibition constant against Mandelate racemase from Pseudomonas putida at pH 6.3.
A short description of data set [3]: Inhibition constant against mandelate racemase from Pseudomonas putida at pH 6.3.

Regarding `O=P(O)(O)[C@H](O)c1ccccc1`, in data set [1], the pKa stood at 6.89. The same compound gave an inhibitory constant (Ki) on Mandelate racemase of 1.1 µM. For `O=C(c1ccccc1)P(=O)(O)O` [BENZOYLPHOSPHONATE] the same measures were 5.46 and 300 µM. As to `O=P(O)(O)Cc1ccccc1` [BENZYLPHOSPHONIC ACID], the inhibition constant Ki at Mandelate racemase was 3600 µM. Same read-out and setting: next, `O=P(O)(O)[C@@H](F)c1ccccc1`: 1110 µM. For the compound `O=P(O)(O)[C@H](F)c1ccccc1`, the inhibitory constant (Ki) in data set [2] is 87 µM; on Mandelate racemase, 530 µM. Take `O=P(O)(O)C(F)(F)c1ccccc1`: the Ki in data set [3] was 1000 µM; on Mandelate racemase it was 12000 µM. `O=P(O)(O)[C@@H](O)c1ccccc1`: the pKa in data set [1] was determined as 6.89. The same compound showed an inhibitory constant (Ki) on Mandelate racemase of 34 µM. Taken in the same sequence, the figures for `O=P(O)(O)C(O)c1ccccc1` (racemic) [ALPHA HYDROXY BENZYLPHOSPHONATE] were 6.89 and 4.7 µM. The compound `O=P(O)(O)C(F)c1ccccc1` (racemic) registered an inhibition constant Ki on Mandelate racemase of 810 µM.

The Ki is a dissociation constant, usually derived from enzyme kinetics or from competition with a known ligand. Read a low Ki as tighter binding.
